Measurements as given in patent publication US9751861B2, “N1-(3,3,3-trifluoro-2-hydroxo-2-methylpropionyl)-piperidine derivatives as inhibitors of pyruvate dehydrogenase kinase” (MERCK PATENT GMBH, priority 2013, dated 2017).

Columns and labels:
PDH-Elalpha (pSer300) = test: Cellular immunofluorescence assay in HEK293T cells; type: cell-based; settings: Homo sapiens, HEK-293T, 5 hours incubation, anti-PDH-E1alpha pSer300 immunofluorescence, read-out: IC50 (cell data)
Experimental: Cellular Assay for Determination of Compound Activities
Compound activities were determined in a cellular immunofluorescence assay. Human HEK293T cells were seeded into black 384-well plates with clear bottom and grown overnight.
Next day, test compounds were added to the wells and the plates incubated for 5 hours. Following this, cells were fixed with formaldehyde, permeabilised and blocked. The primary antibody, Anti-PDH-Elalpha (pSer300), AP1064 (Merck Millipore) was added and incubated overnight in the plate wells. Next, cells were washed and the seconday antibody, Alexa Fluor 488, goat anti-rabbit ab (A-11008, Invitrogen) was added together with Hoechst 33258 (H3569, Invitrogen) and incubated for 1 hour in the plate wells. Finally, cells were washed and the plates were measured on the laser scanning cytometer acumen hci (TTpLabtech).
The raw data were normalized against a pharmacological inhibitor control and dose response curves were generated by plotting the percent effect values using the software package Genedata screener (Genedata).

human PDHK2 (12-407) = target: T1, human PDHK2 (12-407) (Homo sapiens, UniProt Q15119); test: Isothermal titration calorimetry (ITC) binding; settings: 30° C., pH 7.5
T1 construct: The human PDHK2 (12-407) was produced in E. coli; His-tag (cleaved yes); made in house; host or cells: E. coli
Outline: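 Untagged PDHK2 (12-407) from E. coli at 50 μM titrated into 5 μM compound at 30° C in pH 7.5 HEPES/KCl/MgCl2/phosphate buffer, ≤1% DMSO. One-site fit gave KA, ΔH^obs and N after heat-of-dilution correction; protein concentration referenced to a standard inhibitor and compound concentration adjusted to 1:1 stoichiometry.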

PDHK2 = target: T2, PDHK2 (Homo sapiens, UniProt Q15119); test: Biochemical activity testing of PDHK2: PDC inactivation assay; settings: human rec PDHK2, PDC from porcine heart, ATP 5 μM; read-out: IC50 PDHK2 (enzyme assay)
T2 construct: purchased Carna Bioscience
Outline: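 Human recombinant PDHK2 (137 nM final) preincubated 30 min at RT with porcine heart PDC (20 mU/ml) and compound in pH 7.0 phosphate buffer, then phosphorylated with 5 μM ATP for 30 min at 37 °C. Residual PDC activity read as NADH fluorescence increase (Ex 340/Em 450) over 45 min; inhibitor-free reaction as full value, 3 mM DCA as zero, IC50 derived.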

Structure (SMILES) | IC50 (PDH-Elalpha (pSer300)) [nM] | Kd (human PDHK2 (12-407)) [nM] | IC50 (PDHK2) [nM]
C[C@@](O)(C(=O)N1CCC(c2ccnn2-c2ccc(F)cn2)CC1)C(F)(F)F [Compound A112, (2R)-1-[4-[2-(5-Fluoro-2-pyridyl)-2H-pyrazol-3-yl]-1-piperidyl]-3,3,3-trifluoro-2-hydroxy-2-methyl-propan-1-one] | 3000 to 50000 | < 300 | 300 to 3000
C[C@@H]1CN(C(=O)[C@@](C)(O)C(F)(F)F)CC[C@@H]1c1ccnn1-c1ccccc1 [Compound A106, (R)-3,3,3-Trifluoro-2-hydroxy-2-methyl-1-[(3S,4S)-3-methyl-4-(2-phenyl-2H-pyrazol-3-yl)-piperidin-1-yl]-propan-1-one] | < 300 | < 300 | < 300
C[C@@](O)(C(=O)N1CCC(c2ccnn2[C@H]2CC[C@H](O)CC2)CC1)C(F)(F)F [Compound A94, (R)-3,3,3-Trifluoro-2-hydroxy-1-[4-[2-(4-hydroxycyclohexyl)-2H-pyrazol-3-yl]-1-piperidyl]-2-methyl-propan-1-one] | 3000 to 50000 | < 300 | 300 to 3000
Cc1ccc(-n2nccc2C2CCN(C(=O)[C@@](C)(O)C(F)(F)F)CC2)nc1 [Compound A83, (R)-3,3,3-Trifluoro-2-hydroxy-2-methyl-1-{4-[2-(5-methyl-pyridin-2-yl)-2H-pyrazol-3-yl]-piperidin-1-yl}-propan-1-one] | 300 to 3000 | < 300 | 300 to 3000
C[C@@](O)(C(=O)N1CCC(c2cncn2-c2ccc(Cl)cc2)CC1)C(F)(F)F [Compound A125, (R)-1-{4-[3-(4-Chloro-phenyl)-3H-imidazol-4-yl]-piperidin-1-yl}-3,3,3-trifluoro-2-hydroxy-2-methyl-propan-1-one] | 300 to 3000 | < 300 | 300 to 3000
C[C@@](O)(C(=O)N1CCC(c2cncn2-c2ccc(F)cc2)CC1)C(F)(F)F [Compound A124, (R)-3,3,3-Trifluoro-1-{4-[3-(4-fluoro-phenyl)-3H-imidazol-4-yl]-piperidin-1-yl}-2-hydroxy-2-methyl-propan-1-one] | 300 to 3000 | < 300 | 300 to 3000
C[C@@H]1CN(C(=O)[C@@](C)(O)C(F)(F)F)CC[C@@H]1c1ccnn1-c1ccc(F)cn1 [Compound A118, (R)-3,3,3-Trifluoro-1-{(3S,4S)-4-[2-(5-fluoro-pyridin-2-yl)-2H-pyrazol-3-yl]-3-methyl-piperidin-1-yl}-2-hydroxy-2-methyl-propan-1-one] | 300 to 3000 | < 300 | < 300
C[C@@H]1CN(C(=O)[C@@](C)(O)C(F)(F)F)CC[C@@H]1c1ccnn1-c1ccc(Cl)cc1 [Compound A119, (R)-1-{(3S,4S)-4-[2-(4-Chloro-phenyl)-2H-pyrazol-3-yl]-3-methyl-piperidin-1-yl}-3,3,3-trifluoro-2-hydroxy-2-methyl-propan-1-one] | < 300 | < 300 | < 300
Cc1ccccc1-n1nccc1C1CCN(C(=O)[C@@](C)(O)C(F)(F)F)CC1 [Compound A5, (R)-3,3,3-Trifluoro-2-hydroxy-2-methyl-1-[4-(2-o-tolyl-2H-pyrazol-3-yl)-piperidin-1-yl]-propan-1-one] | 300 to 3000 | < 300 | 300 to 3000
C[C@@](O)(C(=O)N1CCC(c2ccnn2-c2cccc(F)c2)CC1)C(F)(F)F [Compound A10, (R)-3,3,3-Trifluoro-1-{4-[2-(3-fluoro-phenyl)-2H-pyrazol-3-yl]-piperidin-1-yl}-2-hydroxy-2-methyl-propan-1-one] | 300 to 3000 | < 300 | < 300
C[C@@](O)(C(=O)N1CCC(c2cncn2-c2ccc(Cl)cc2F)CC1)C(F)(F)F [Compound A126, (R)-1-{4-[3-(4-Chloro-2-fluoro-phenyl)-3H-imidazol-4-yl]-piperidin-1-yl}-3,3,3-trifluoro-2-hydroxy-2-methyl-propan-1-one] | 300 to 3000 | < 300 | < 300
COc1ccc(-n2nccc2[C@H]2CCN(C(=O)[C@@](C)(O)C(F)(F)F)C[C@H]2C)cn1 [Compound A113, (R)-3,3,3-Trifluoro-1-{(3S,4S)-4-[2-(6-methoxy-pyridin-3-yl)-2H-pyrazol-3-yl]-3-methyl-piperidin-1-yl}-2-hydroxy-2-methyl-propan-1-one] | < 300 | < 300 | < 300
CC(C)(C)c1ccc(-n2nccc2C2CCN(C(=O)[C@@](C)(O)C(F)(F)F)CC2)cc1 [Compound A21, (R)-1-{4-[2-(4-tert-Butyl-phenyl)-2H-pyrazol-3-yl]-piperidin-1-yl}-3,3,3-trifluoro-2-hydroxy-2-methyl-propan-1-one] | 300 to 3000 | < 300 | 300 to 3000
C[C@@](O)(C(=O)N1CCC(c2ccnn2Cc2ccccc2)CC1)C(F)(F)F [Compound A38, (R)-1-[4-(2-Benzyl-2H-pyrazol-3-yl)-piperidin-1-yl]-3,3,3-trifluoro-2-hydroxy-2-methyl-propan-1-one] | 300 to 3000 | < 300 | 300 to 3000
C[C@@](O)(C(=O)N1CCC(c2ccnn2-c2nc3ccccc3s2)CC1)C(F)(F)F [Compound A117, (R)-1-[4-(2-Benzothiazol-2-yl-2H-pyrazol-3-yl)-piperidin-1-yl]-3,3,3-trifluoro-2-hydroxy-2-methyl-propan-1-one] | 3000 to 50000 | < 300 | 300 to 3000
COc1ccc(-n2nccc2C2CCN(C(=O)[C@@](C)(O)C(F)(F)F)CC2)cc1 [Compound A2, (R)-3,3,3-Trifluoro-2-hydroxy-1-{4-[2-(4-methoxy-phenyl)-2H-pyrazol-3-yl]-piperidin-1-yl}-2-methyl-propan-1-one] | 300 to 3000 | < 300 | < 300
C[C@@](O)(C(=O)N1CCC(c2cc(C(F)(F)F)nn2-c2ccccc2)CC1)C(F)(F)F [Compound A43, (R)-1-[4-(2-Phenyl-5-trifluoromethyl-2H-pyrazol-3-yl)-piperidin-1-yl]-3,3,3-trifluoro-2-hydroxy-2-methyl-propan-1-one] | 300 to 3000 | < 300 | 300 to 3000
C[C@@H]1CN(C(=O)[C@@](C)(O)C(F)(F)F)CC[C@@H]1c1ccnn1-c1ccc(C#N)cc1 [Compound A111, 4-{5-[(3S,4S)-3-Methyl-1-((R)-3,3,3-trifluoro-2-hydroxy-2-methyl-propionyl)piperidin-4-yl]-pyrazol-1-yl}-benzonitrile] | < 300 | < 300 | < 300
C[C@@](O)(C(=O)N1CCC(n2ccnc2-c2ccccc2)CC1)C(F)(F)F [Compound A61, (R)-3,3,3-Trifluoro-2-hydroxy-2-methyl-1-[4-(2-phenyl-imidazol-1-yl)-piperidin-1-yl]-propan-1-one] | 3000 to 50000 | < 300 | < 300
C[C@@](O)(C(=O)N1CCC(c2ccnn2-c2ccc(C#N)cc2F)CC1)C(F)(F)F [Compound A91, 3-Fluoro-4-[5-[1-[(R)-3,3,3-trifuoro-2-hydroxy-2-methyl-propanoyl]-4-piperidyl]-2H-pyrazol-1-yl]benzonitrile] | 3000 to 50000 | < 300 | 300 to 3000
C[C@@](O)(C(=O)N1CCC(c2ccnn2-c2ccc(Cl)cc2F)CC1)C(F)(F)F [Compound A23, (R)-1-{4-[2-(4-Chloro-2-fluoro-phenyl)-2H-pyrazol-3-yl]-piperidin-1-yl}-3,3,3-trifluoro-2-hydroxy-2-methyl-propan-1-one] | 300 to 3000 | < 300 | < 300
C[C@@](O)(C(=O)N1CCC(c2ccnn2-c2ccccc2F)CC1)C(F)(F)F [Compound A4, (R)-3,3,3-Trifluoro-1-{4-[2-(2-fluoro-phenyl)-2H-pyrazol-3-yl]-piperidin-1-yl}-2-hydroxy-2-methyl-propan-1-one] | 300 to 3000 | < 300 | < 300
C[C@@](O)(C(=O)N1CCC(c2cc(C(F)(F)F)nn2-c2ccc(F)cc2)CC1)C(F)(F)F [Compound A42, (R)-1-{4-[2-(4-Fluoro-phenyl)-5-trifluoromethyl-2H-pyrazol-3-yl]-piperidin-1-yl}-3,3,3-trifluoro-2-hydroxy-2-methyl-propan-1-one] | 300 to 3000 | < 300 | 300 to 3000
C[C@@](O)(C(=O)N1CCC(c2ccnn2-c2cccc(C#N)c2)CC1)C(F)(F)F [Compound A8, 3-{5-[1-((R)-3,3,3-Trifluoro-2-hydroxy-2-methyl-propionyl)-piperidin-4-yl]-pyrazol-1-yl}-benzonitrile] | 300 to 3000 | < 300 | 300 to 3000
